Laboratory results as given in article PMC3691182 (PLoS ONE, 2013).
Entries after “also recorded” stand apart in the source; their conditions may differ. Where two headings read alike, the source gives them in different places.

Key:
[1] = tested on: neuronal TTX-sensitive voltage-gated sodium channels; conditions: cited from earlier work
DRG neuron = tested on: DRG neuron; parameters: method as in PMID 16267209, PMID 19409400; conditions: in words; ref [27], [28]; cited from earlier work
domain II of Nav1.7 = conditions: in words; ref [11]; cited from earlier work
[2] = tested on: TTX-S sodium channels in rat DRG neurons; test: Time course for block of TTX-S currents and reversal of block on washing; type: cell-based
[3] = tested on: TTX-resistant voltage-gated sodium channels; conditions: in words; reference not given; cited from earlier work
Source text: Previous research has identified nearly 150 of these components in the Chinese bird spider, Ornithoctonus huwena, which is one of the most venomous spiders in China. Most of the toxins have six cystine residues adopting inhibitor cystine-knot (ICK) motif with a 1–4, 2–5, 3–6 disulfide bonding pattern; the biological activities of some peptide toxins were thoroughly investigated.

sodium channel = conditions: cited from earlier work
Source text: Huwentoxin-IV (HWTX-IV), a tetrodotoxin-sensitive (TTX-s) sodium channel antagonist, is found in the venom of the Chinese spider Ornithoctonus huwena. A naturally modified HWTX-IV (mHWTX-IV), having a molecular mass 18 Da lower than HWTX-IV, has also been isolated from the venom of the same spider. […] Previous research has identified nearly 150 of these components in the Chinese bird spider, Ornithoctonus huwena, which is one of the most venomous spiders in China. […] To address this question, we adopted a triple-pulse protocol in which a test pulse (−10 mV) following a strong depolarization (+200 mV, 500 ms) was used to measure available TTX-S sodium currents.

[4] = tested on: TTX-S sodium channels in rat DRG neurons; test: Current-voltage relationship, conductance, steady-state activation and inactivation of TTX-S sodium channel; type: cell-based
[5] = tested on: TTX-R sodium channel of DRG neurons; test: Whole-cell patch-clamp, TTX-R sodium currents in DRG neurons; type: cell-based, adult Sprague-Dawley rat
[6] = tested on: TTX-S voltage-gated sodium channel of DRG neurons; test: Whole-cell patch-clamp, inhibition of TTX-S sodium currents in DRG neurons; type: cell-based, adult Sprague-Dawley rat
Nav1.7 = test: Triple-pulse protocol, recovery of Nav1.7 current following strong depolarization (HEK293 cells); type: cell-based

jingzhaotoxin-34 [JZTX-34]
Inhibition of neuronal TTX-sensitive sodium channels (literature) ([1]; in words, ref [9]): inhibited neuronal TTX-sensitive voltage-gated sodium channels

Jingzhaotoxin-IX [JZTX-IX]
Action under extreme depolarization on DRG neuron compared with mHWTX-IV (DRG neuron): similar

Huwentoxin-IV [HWTX-IV]
Binding site on Nav1.7 (domain II of Nav1.7): binds with the S3–S4 linker D816 and E818 in domain II of Nav1.7 by electrostatic interaction
Dissociation after washing, in words [2]: slowly dissociated
Time course for inhibition of TTX-S currents [2]: 25.4 s
Time course of dissociation after washing [2]: 88.3 s
Effect on TTX-resistant sodium channels (literature) [3]: no significant effect
Dissociation at moderate depolarization (sodium channel): dissociates at moderate voltage depolarization voltages
Reversal of binding to sodium channels by strong depolarization (literature) (sodium channel): can be reversed by strong depolarization
Reversibility of inhibition by strong depolarization (literature) (sodium channel): reversible by strong depolarization
Voltage above which currents can be observed (dissociation by strong depolarization) (sodium channel): > 70 mV
Inhibition of TTX-S sodium channel in DRG neurons (literature) [1]: specifically inhibited
IC50 ([1]; read-out: IC50, inhibition of neuronal TTX-sensitive sodium channels (literature)): 30 nM
Channel conductance (conductance–voltage curve) [4]: did not change channel conductance
Steady-state activation and inactivation, comparison of HWTX-IV and mHWTX-IV [4]: no obvious difference
Steady-state inactivation of TTX-S sodium channel [4]: No shift of the steady-state inactivation curve
Threshold of activation and reversal potential of TTX-S sodium channel (I–V) [4]: did not change the threshold of activation and alter the reversal potential
Effect on TTX-R sodium currents [5]: no effect
IC50 [6]: 42.9 ± 1.72 nM
Inhibition of TTX-S currents [6]: almost completely inhibited; also recorded: significantly reduced
Recovery of Nav1.7 current, +50 mV (Nav1.7; 1 µM toxin, HEK293 cells, +50 mV for 500 ms, in words): little recovery
Recovery of Nav1.7 current, +100 mV (Nav1.7; 1 µM toxin, HEK293 cells, +100 mV for 500 ms, in words): little recovery
Recovery of Nav1.7 current, +150 mV (Nav1.7; 1 µM toxin, HEK293 cells, +150 mV, five cells): about 34%
Recovery of Nav1.7 current, +200 mV (Nav1.7; 1 µM toxin, HEK293 cells, +200 mV, five cells): ~78%
Recovery of Nav1.7 current by extreme depolarization (summary) (Nav1.7; abstract summary, in words): voltage-dependent and was induced by extreme depolarization

ProTx-II
Reversal of binding to sodium channels by strong depolarization (literature) (sodium channel; in words, ref [11], [19], [20]): can be reversed by strong depolarization
